Here are results for 53 compounds from US5250679A, “Nonpeptidyl platelet aggregation inhibitors having specificity for the GPIIb III receptor” (Genentech, Inc., priority 1992, dated 1993).

Structures can show the parent of a compound that is named as a salt.

T1 sequence (P08514 32-887 limits assumed): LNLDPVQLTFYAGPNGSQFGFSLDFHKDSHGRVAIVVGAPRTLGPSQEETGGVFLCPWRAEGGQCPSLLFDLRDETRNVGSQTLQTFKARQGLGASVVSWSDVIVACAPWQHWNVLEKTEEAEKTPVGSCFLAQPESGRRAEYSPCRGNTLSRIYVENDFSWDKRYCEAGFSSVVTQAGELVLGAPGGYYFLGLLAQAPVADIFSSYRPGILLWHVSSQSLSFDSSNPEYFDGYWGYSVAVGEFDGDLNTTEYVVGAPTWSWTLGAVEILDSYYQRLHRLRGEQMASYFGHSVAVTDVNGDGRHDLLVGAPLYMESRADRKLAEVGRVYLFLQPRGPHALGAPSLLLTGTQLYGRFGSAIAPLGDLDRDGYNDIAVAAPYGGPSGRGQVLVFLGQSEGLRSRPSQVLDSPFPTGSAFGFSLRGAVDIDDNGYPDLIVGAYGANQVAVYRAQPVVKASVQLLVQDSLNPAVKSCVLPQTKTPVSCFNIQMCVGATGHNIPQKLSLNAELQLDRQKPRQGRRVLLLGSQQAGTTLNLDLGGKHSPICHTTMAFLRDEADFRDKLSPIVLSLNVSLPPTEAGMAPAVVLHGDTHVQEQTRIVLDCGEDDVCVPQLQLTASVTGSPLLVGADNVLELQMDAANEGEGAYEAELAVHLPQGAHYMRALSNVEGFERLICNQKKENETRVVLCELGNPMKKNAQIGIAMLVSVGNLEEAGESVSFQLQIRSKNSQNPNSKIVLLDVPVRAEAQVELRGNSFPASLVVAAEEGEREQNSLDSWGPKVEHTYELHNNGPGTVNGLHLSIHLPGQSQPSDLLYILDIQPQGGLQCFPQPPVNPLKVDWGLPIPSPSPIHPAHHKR
T1 sequence (P08514 891-1039 partner limits assumed): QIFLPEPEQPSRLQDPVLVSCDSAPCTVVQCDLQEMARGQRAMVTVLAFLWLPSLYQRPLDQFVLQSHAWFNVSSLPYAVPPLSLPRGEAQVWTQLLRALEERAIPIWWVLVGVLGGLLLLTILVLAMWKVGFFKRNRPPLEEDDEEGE
T1 sequence (P05106 27-788): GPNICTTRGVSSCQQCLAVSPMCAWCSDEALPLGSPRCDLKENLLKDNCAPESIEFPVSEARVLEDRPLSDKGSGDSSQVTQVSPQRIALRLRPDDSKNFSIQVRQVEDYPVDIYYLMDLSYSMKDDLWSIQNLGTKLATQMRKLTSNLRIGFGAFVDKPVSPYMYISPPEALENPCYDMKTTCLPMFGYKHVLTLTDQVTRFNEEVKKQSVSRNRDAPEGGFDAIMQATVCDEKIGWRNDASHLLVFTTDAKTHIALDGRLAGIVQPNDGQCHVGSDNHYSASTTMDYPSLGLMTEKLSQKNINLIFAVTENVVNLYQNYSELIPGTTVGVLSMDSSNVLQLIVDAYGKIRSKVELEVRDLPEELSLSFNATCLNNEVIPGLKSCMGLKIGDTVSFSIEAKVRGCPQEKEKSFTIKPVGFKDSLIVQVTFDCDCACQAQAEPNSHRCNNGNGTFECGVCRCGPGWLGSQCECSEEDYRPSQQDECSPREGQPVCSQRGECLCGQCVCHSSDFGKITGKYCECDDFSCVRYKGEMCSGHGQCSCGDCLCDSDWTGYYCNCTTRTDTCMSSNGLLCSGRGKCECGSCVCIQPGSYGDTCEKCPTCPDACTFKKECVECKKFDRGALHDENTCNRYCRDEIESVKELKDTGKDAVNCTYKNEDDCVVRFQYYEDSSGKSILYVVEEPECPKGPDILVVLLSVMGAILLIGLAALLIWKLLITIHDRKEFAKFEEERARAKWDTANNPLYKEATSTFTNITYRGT

The test concerns the target T1, GP IIb IIIa (Homo sapiens, UniProt P05106+P08514).
T1 construct: from tissue; host or cells: outdated human platelets
Description: Fibrinogen-GP IIb IIIa Receptor ELISA Binding Assay (Fg/IIbIIIa). Particulars: Example 29, Cmpd # 1-105; read-out: IC50 Fg/IIbI. How it is done:
Briefly, microtiter plates are coated with fibrinogen (10 mg/ml) and then blocked with TACTS buffer containing 0.5% bovine serum albumin (BSA). […] After another wash a goat anti-mouse IgG conjugated to horseradish peroxidase is added. […] The reaction is stopped with 1N sulfuric acid and the absorbance at 492 nm is recorded. […] Outdated human platelets are washed 3 times with 10 mM tris-HCl, 150 mM NaCl (TBS), 1 mM EDTA, pH 7.5, and centrifuged at 2000×g to pellet cells. […] The supernatant fraction is collected and the supernatant is loaded onto a concanavalin-A column, previously equilibrated in TBS, 1 mM Ca2 Cl2, 0.1% Triton, 0.05% NaN3 and eluted with 0.2M a-methylmannoside. Fractions are pooled and loaded onto a heparin-agarose column. The flowthrough is collected and concentrated on an Amicon YM 30 filter to a volume of approximately 5-10 ml. The concentrate is then applied to an S-300 column (500 ml) and 6 ml fractions are collected. The GP IIb IIIa containing fractions are collected, pooled, and stored at -80° C. […] The precipitate is spun down in appropriate size bottles at 2000×g. The supernatant is decanted and the precipitate resuspended in 150 mM NaCl (approximately 50% of the original volume). […] The suspension is spun down and the precipitate is resuspended in Tris-saline in a minimal volume (approximately 5% of the original volume). Any remaining insoluble material is spun down at 2000 rpm in a Sorval type centrifuge and the fibrinogen supernatant is decanted and dialyzed overnight at 4° C. against Tris-saline. Characterization of the fibrinogen is by the Bradford protein assay, SDS-PAGE, and/or Western blotting using well known standard procedures. Briefly, 96 well plates are coated (Type Nunc 1 MaxisorpTM) with 10 mg/ml purified fibrinogen ([…]), and allowed to stand overnight at 4° C. […] The plates are again washed three times with PBS/Tween and then […] of sample in TNCNT is added. The mixture is incubated for 15 minutes at room temperature on a plate shaker. […] Fifty ml of this diluted GP IIb IIIa is then added to each well and incubated on a plate shaker at room temperature. After one hour, the plates are washed four times with PBS/Tween and 100 ml of a polyclonal or monoclonal antibody specific for GP IIIa such as AP3 (1 mg/ml) (See e.g. […] After a one hour incubation at room temperature on a plate shaker, the samples are washed 4 times with PBS/Tween. […] The color develops within about 3 to 20 minutes and the reaction is stopped with 100 ml 1M H2 SO4. The optical density at 492 nm vs 405 nm is recorded and IC50 values are determined.
Background: An ELISA detects its analyte on a solid surface through an enzyme-linked reagent.
Regarding `NCCCc1ccc2c(c1)C(=O)N(CCC(=O)O)CC(=O)N2` [Cmpd 1], the IC50 amounted to 8.3 µM.

As for `CN1C(=O)CN(CCC(=O)O)C(=O)c2cc(CCCN)ccc21` [Cmpd 3], the IC50 stood at 28 µM.

For the compound `CN1C(=O)CN(CCC(=O)O)C(=O)c2cc(CCCNC(=N)N)ccc21` [Cmpd 4], the IC50 stood at 0.466 µM.

With `CN1C(=O)CN(CCC(=O)O)C(=O)c2cc(C#CCN)ccc21` [Cmpd 5], the IC50 was 7 µM.

`CN1C(=O)CN(CCC(=O)O)C(=O)c2cc(C#CCNC(=N)N)ccc21` [Cmpd 6]: the IC50 turned out to be 0.17 µM.

As for `CC1C(=O)N(C)c2ccc(CCCN)cc2C(=O)N1CCC(=O)O` (centres unmarked) [Cmpd 7], the IC50 was 30 µM.

Consider `CC1C(=O)N(C)c2ccc(CCCNC(=N)N)cc2C(=O)N1CCC(=O)O` (centres unmarked) [Cmpd 8], for which the IC50 is greater than 100 µM.

For `CC1C(=O)N(C)c2ccc(C#CCN)cc2C(=O)N1CCC(=O)O` (centres unmarked) [Cmpd 9], the IC50 stood at 70 µM.

Regarding `CC1C(=O)N(C)c2ccc(C#CCNC(=N)N)cc2C(=O)N1CCC(=O)O` (centres unmarked) [Cmpd 10], the IC50 is 30 µM.

With `CN1C(=O)C(c2ccccc2)N(CCC(=O)O)C(=O)c2cc(CCCN)ccc21` (centres unmarked) [Cmpd 11], the IC50 was 600 µM.

For the compound `CN1C(=O)C(c2ccccc2)N(CCC(=O)O)C(=O)c2cc(CCCNC(=N)N)ccc21` (centres unmarked) [Cmpd 12], the IC50 was found to be 2.3 µM.

For the compound `CN1C(=O)C(c2ccccc2)N(CCC(=O)O)C(=O)c2cc(C#CCN)ccc21` (centres unmarked) [Cmpd 13], the IC50 is greater than 1000 µM.

For `CN1C(=O)C(c2ccccc2)N(CCC(=O)O)C(=O)c2cc(C#CCNC(=N)N)ccc21` (centres unmarked) [Cmpd 14], the IC50 came out at 25 µM.

Take `CN1C(=O)C2CCC(CC(=O)O)N2C(=O)c2cc(CCCN)ccc21` (centres unmarked) [Cmpd 15]: the IC50 was greater than 100 µM.

As to `CN1C(=O)C2CCC(CC(=O)O)N2C(=O)c2cc(CCCNC(=N)N)ccc21` (centres unmarked) [Cmpd 16], the IC50 was greater than 100 µM.

`CN1C(=O)C2CCC(CC(=O)O)N2C(=O)c2cc(CCCN)ccc21` (centres unmarked) [Cmpd 17]: the IC50 was greater than 100 µM.

As to `CN1C(=O)C2CCC(CC(=O)O)N2C(=O)c2cc(CCCNC(=N)N)ccc21` (centres unmarked) [Cmpd 18], the IC50 is greater than 100 µM.

As to `CN1C(=O)CN(CCC(=O)O)C(=O)c2cc(CCCCN)ccc21` [Cmpd 19], the IC50 came to 5 µM.

As to `CN1C(=O)CN(CCC(=O)O)C(=O)c2cc(C#CCCN)ccc21` [Cmpd 21], the IC50 was determined as 6 µM.

On to `CC1C(=O)N(C)c2ccc(CCCCN)cc2C(=O)N1CCC(=O)O` (centres unmarked) [Cmpd 23], for which the IC50 is greater than 100 µM.

Take `CC1C(=O)N(C)c2ccc(CCCCNC(=N)N)cc2C(=O)N1CCC(=O)O` (centres unmarked) [Cmpd 24]: the IC50 amounted to 100 µM.

As to `CC1C(=O)N(C)c2ccc(C#CCCN)cc2C(=O)N1CCC(=O)O` (centres unmarked) [Cmpd 25], the IC50 was greater than 100 µM.

Regarding `CC1C(=O)N(C)c2ccc(C#CCCNC(=N)N)cc2C(=O)N1CCC(=O)O` (centres unmarked) [Cmpd 26], the IC50 stood at 80 µM.

Regarding `NCCCCCc1ccc2c(c1)C(=O)N(CCC(=O)O)CC(=O)N2` [Cmpd 29], the IC50 is 2.92 µM.

As for `N=C(N)NCCCCCc1ccc2c(c1)C(=O)N(CCC(=O)O)CC(=O)N2` [Cmpd 30], the IC50 is 0.204 µM.

In the case of `NCCCC#Cc1ccc2c(c1)C(=O)N(CCC(=O)O)CC(=O)N2` [Cmpd 31], the IC50 was determined as 1.43 µM.

Turning to `N=C(N)NCCCC#Cc1ccc2c(c1)C(=O)N(CCC(=O)O)CC(=O)N2` [Cmpd 32], the IC50 came to 0.254 µM.

`CC(CC(=O)O)N1CC(=O)N(C)c2ccc(C#CCCCN)cc2C1=O` (centres unmarked) [Cmpd 37, 1-methyl-4-(2-carboxy-1-methylethyl)-7-(5-amino-1-pentyne)-3,4-dihydro-1H-1,4-benzodiazepine-2,5-dione trifluroacetate]: the IC50 amounted to 0.061 µM.

For the compound `CN1C(=O)CN(CCC(=O)O)C(=O)c2cc(CCCCCCN)ccc21` [Cmpd 39], the IC50 turned out to be 0.07 µM.

Take `CN1C(=O)CN(CCC(=O)O)C(=O)c2cc(CCCCCCNC(=N)N)ccc21` [Cmpd 40]: the IC50 worked out at 0.12 µM.

Consider `CN1C(=O)CN(CCC(=O)O)C(=O)c2cc(C#CCCCCN)ccc21` [Cmpd 41, 1-(methyl)-4-(2-carboxyethyl)-7-(6-amino-1-hexynyl)-3,4-dihydro-1H-1,4-benzodiazepine-2,5-dione trifluroacetate], for which the IC50 came out at 0.1 µM.

In the case of `CN1C(=O)CN(CCC(=O)O)C(=O)c2cc(CCc3ccc(CN)cc3)ccc21` [Cmpd 45], the IC50 was 0.085 µM.

With `CN1C(=O)CN(CCC(=O)O)C(=O)c2cc(CCc3ccc(CNC(=N)N)cc3)ccc21` [Cmpd 46], the IC50 worked out at 0.265 µM.

For the compound `CN1C(=O)CN(CCC(=O)O)C(=O)c2cc(CCc3cccc(N)c3)ccc21` [Cmpd 47], the IC50 turned out to be 10 µM.

Regarding `CN1C(=O)CN(CCC(=O)O)C(=O)c2cc(C#Cc3cccc(N)c3)ccc21` [Cmpd 49], the IC50 came to 6 µM.

With `CN1C(=O)CN(C(CC(=O)O)c2ccccc2)C(=O)c2cc(CCCCCCN)ccc21` (centres unmarked) [Cmpd 51], the IC50 came to 0.2 µM.

Consider `CN1C(=O)CN(C(CC(=O)O)c2ccccc2)C(=O)c2cc(CCCCCCNC(=N)N)ccc21` (centres unmarked) [Cmpd 52], for which the IC50 turned out to be 0.39 µM.

In the case of `CN1C(=O)CN(C(CC(=O)O)c2ccccc2)C(=O)c2cc(C#CCCCCN)ccc21` (centres unmarked) [Cmpd 53], the IC50 amounted to 0.24 µM.

As to `CN1C(=O)CN(C(CC(=O)O)c2ccccc2)C(=O)c2cc(C#CCCCCNC(=N)N)ccc21` (centres unmarked) [Cmpd 54], the IC50 was found to be 0.1 µM.

Take `CN1C(=O)CN(CCC(=O)O)C(=O)c2cc(C#Cc3ccc(C#N)cc3)ccc21` [Cmpd 57]: the IC50 was found to be 30 µM.

As for `NCCCC#Cc1ccc2c(c1)C(=O)N(CCC(=O)O)CC(=O)N2Cc1ccc(Cl)cc1` [Cmpd 58], the IC50 came out at 0.062 µM.

Turning to `N=C(N)NCCCC#Cc1ccc2c(c1)C(=O)N(CCC(=O)O)CC(=O)N2Cc1ccc(Cl)cc1` [Cmpd 59], the IC50 was 0.009 µM.

With `N=C(N)NCCCCC#Cc1ccc2c(c1)C(=O)N(CCC(=O)O)CC(=O)N2Cc1ccc(Cl)cc1` [Cmpd 61], the IC50 came to 0.043 µM.

As for `NCCCCCc1ccc2c(c1)C(=O)N(CCC(=O)O)CC(=O)N2Cc1ccc(Cl)cc1` [Cmpd 62], the IC50 was determined as 0.176 µM.

On to `N=C(N)NCCCCCCc1ccc2c(c1)C(=O)N(CCC(=O)O)CC(=O)N2Cc1ccc(Cl)cc1` [Cmpd 65], for which the IC50 came out at 0.05 µM.

For the compound `N=C(N)NCCCCCCCc1ccc2c(c1)C(=O)N(CCC(=O)O)CC(=O)N2Cc1ccc(Cl)cc1` [Cmpd 67], the IC50 amounted to 0.2 µM.

For the compound `COc1ccc(CN2C(=O)CN(CCC(=O)O)C(=O)c3cc(CCCCCNC(=N)N)ccc32)cc1` [Cmpd 79, 1-(p-methoxybenzyl)-4-(2-carboxyethyl)-7-(5-guanidinopentyl)-3,4-dihydro-1H-1,4-benzodiazepine-2,5-dione trifluoroacetate], the IC50 came to 0.011 µM.

As to `COc1ccc(CN2C(=O)CN(CCC(=O)O)C(=O)c3cc(CCCCCN)ccc32)cc1` [Cmpd 80, 1-(p-methoxybenzyl)-4-(2-carboxyethyl)-7-(5-aminopentyl)-3,4-dihydro-1H-1,4-benzodiazepine-2,5-dione trifluoroacetate], the IC50 was 0.16 µM.

`N=C(N)NCCCCCCc1ccc2c(c1)C(=O)N(CCC(=O)O)CC(=O)N2Cc1ccc2ccccc2c1` [Cmpd 86, 1-(2-napthyl)methyl-4-(2-carboxyethyl)-7-(6-guanidinohexyl)-3,4-dihydro-1H-1,4-benzodiazepine-2,5-dione trifluoroacetate]: the IC50 came out at 0.055 µM.

Take `NCCCCC#Cc1ccc2c(c1)C(=O)N(CCC(=O)O)CC(=O)N2Cc1ccc([N+](=O)[O-])cc1` [Cmpd 87]: the IC50 turned out to be 0.031 µM.

As to `N=C(N)NCCCCC#Cc1ccc2c(c1)C(=O)N(CCC(=O)O)CC(=O)N2Cc1ccc([N+](=O)[O-])cc1` [Cmpd 88], the IC50 came to 0.031 µM.

With `N=C(N)NCCCCCCc1ccc2c(c1)C(=O)N(CCC(=O)O)CC(=O)N2Cc1ccc(C(F)(F)F)cc1` [Cmpd 89, 1-(p-trifluoromethylbenzyl)-4-(2-carboxyethyl)-7-(6-guanidinohexyl)-3,4-dihydro-1H-1,4-benzodiazepine-2,5-dione trifluoroacetate], the IC50 came to 0.047 µM.

With `NCCCCCCc1ccc2c(c1)C(=O)N(CCC(=O)O)CC(=O)N2Cc1ccc(C(F)(F)F)cc1` [Cmpd 90, 1-(p-trifluoromethylbenzyl)-4-(2-carboxyethyl)-7-(6-aminohexyl)-3,4-dihydro-1H-1,4-benzodiazepine-2,5-dione trifluoroacetate], the IC50 was 0.005 µM.
